Among the data in ChEMBL document CHEMBL3875159, “High-affinity small molecular blockers of mixed lineage leukemia 1 (MLL1)-WDR5 interaction inhibit MLL1 complex H3K4 methyltransferase activity” (Eur J Med Chem, 2016) are IC50 and Kd values, retold here.

Each structure is given as a SMILES string. pIC50, pKd: −log10 of the molar value.

The target in assay [1] is T1, WD repeat-containing protein 5 (Homo sapiens, UniProt P61964). The experiment in a line: Inhibition of 10mer-Thr-FAM probe binding to human WDR5 after 2 hrs by fluorescence polarization assay. For orientation: Polarisation of emitted light reports the rotation of a fluorescent probe.
The nature of assay [2]: Antiproliferative activity against human MV4-11 cells harboring MLL-AF4 fusion protein after 72 hrs by CCK8 assay. It is filed as functional, cell-based. Particulars: MV4-11, 72 h. In general terms: Tetrazolium dyes change colour on reduction, which living cells bring about.
Assay [3] addresses T1, WD repeat-containing protein 5. In words: Binding affinity to human WDR5 by isothermal titration calorimetry. A general note: Isothermal titration calorimetry measures the heat released or taken up as one component is titrated into another.
Assay [4] concerns the target MLL1/ASH2L/RBBP5/WDR5 complex (Homo sapiens, UniProt P61964+Q03164+Q15291+Q9UBL3). In words: Inhibition of recombinant MLL1/ASH2L/RBBP5/WDR5 complex histone methyltransferase activity (unknown origin) by AlphaScreen assay. It counts as protein-complex assay.

Usually pIC50 stands for −log10 of the IC50, conventionally taken in molar units. Turning to `Cc1c(F)ccc(C(=O)Nc2cc([N+](=O)[O-])ccc2NCCCn2ccnc2)c1Cl`, the pIC50 in assay [1] is < 4.70.

In the case of `Cc1c(F)c(N)cc(C(=O)Nc2cc(-c3ccc(NC(=O)CCN)cc3)ccc2N2CCN(C)CC2)c1Cl`, the pIC50 was 7.30 in assay [1] and 4.60 in assay [2].

For `CC(=O)Nc1cc(C(=O)Nc2cc(-c3ccncc3)ccc2N2CCN(C)CC2)c(Cl)c(C)c1F`, the pIC50 in assay [1] is 5.87.

In the case of `Cc1c(F)ccc(C(=O)Nc2cc([N+](=O)[O-])ccc2N2CCN(c3ccc(F)cc3)CC2)c1Cl`, in assay [1], the pIC50 is < 4.70.

Take `CCC(=O)Nc1ccc(-c2ccc(N3CCN(C)CC3)c(NC(=O)c3cc(N)c(F)c(C)c3Cl)c2)cc1`: the pIC50 in assay [1] is 7.09; in assay [2] it was 5.19.

`CCCC(=O)Nc1ccc(-c2ccc(N3CCN(C)CC3)c(NC(=O)c3cc(N)c(F)c(C)c3Cl)c2)cc1`: the results for the pIC50 in assay [1] and in assay [2] were 7.12 and 5.64, respectively.

As to `Cc1c(F)c(N)cc(C(=O)Nc2cc(-c3ccc(NC(=O)C(C)N)cc3)ccc2N2CCN(C)CC2)c1Cl` (stereo not drawn), the pIC50 in assay [1] was 7.82; in assay [2], 4.95.

What is called pKd is −log10 of the Kd, conventionally taken in molar units. `Cc1c(F)c(N)cc(C(=O)Nc2cc(-c3ccc(NC(=O)C4CCNCC4)cc3)ccc2N2CCN(C)CC2)c1Cl`: the pKd in assay [3] was 8.12. Further, the pIC50 in assay [4] was 6.52; in assay [2], 5.04.

Compound `CC(=O)Nc1cc(C(=O)Nc2cc(-c3ccc(N)cc3)ccc2N2CCN(C)CC2)c(Cl)c(C)c1F` showed a pIC50 in assay [1] of 5.50.

Take `Cc1c(F)c(N)cc(C(=O)Nc2cc(-c3ccc(NC(=O)CC(C)C)cc3)ccc2N2CCN(C)CC2)c1Cl`: the pIC50 is 6.98 in assay [1] and 5.41 in assay [2].

Regarding `Cc1c(F)c(N)cc(C(=O)Nc2cc(-c3ccc(NC(=O)CN)cc3)ccc2N2CCN(C)CC2)c1Cl`, the pIC50 in assay [1] was 7.20; in assay [2], 4.88.

On to `CN1CCN(c2ccc(-c3ccc([N+](=O)[O-])cc3)cc2NC(=O)c2ccc(F)c([N+](=O)[O-])c2)CC1`, for which the pIC50 in assay [1] is 5.96.

In assay [1], `CN1CCN(c2ccc(-c3ccncc3)cc2NC(=O)c2ccc(F)c(N)c2)CC1` gave a pIC50 of 5.24.

Regarding `Cc1c(F)ccc(C(=O)Nc2cc([N+](=O)[O-])ccc2NCCN2CCCC2)c1Cl`, the pIC50 in assay [1] was < 4.70.

In turn, `COC(=O)c1ccc(-c2ccc(N3CCN(C)CC3)c(NC(=O)c3cc([N+](=O)[O-])c(F)c(C)c3Cl)c2)cc1` showed a pIC50 in assay [1] of 7.03.

On to `COc1ccc(N2CCN(c3ccc([N+](=O)[O-])cc3NC(=O)c3ccc(F)c(C)c3Cl)CC2)cc1`, for which the pIC50 in assay [1] was < 4.70.

For the compound `CN1CCN(c2ccc(-c3ccc(N)cc3)cc2NC(=O)c2ccc(F)c(N)c2)CC1`, the pIC50 in assay [1] is 4.87.

`Cc1c(F)c(N)cc(C(=O)Nc2cc(-c3ccc(NC(=O)CCNC(=O)OC(C)(C)C)cc3)ccc2N2CCN(C)CC2)c1Cl`: the figures for the pIC50 in assay [1] and in assay [2] were 6.99 and 5.34, respectively.

With `Cc1c(F)c([N+](=O)[O-])cc(C(=O)Nc2cc(-c3ccc([N+](=O)[O-])cc3)ccc2N2CCN(C)CC2)c1Cl`, the pIC50 in assay [1] is 6.54.

`Cc1c(F)c(N)cc(C(=O)Nc2cc(-c3ccc(NC(=O)CCCNC(=O)OC(C)(C)C)cc3)ccc2N2CCN(C)CC2)c1Cl`: the figures for the pIC50 in assay [1] and in assay [2] were 7.09 and 5.32, respectively.

As to `Cc1c(F)c(N)cc(C(=O)Nc2cc(-c3ccncc3)ccc2N2CCN(C)CC2)c1Cl`, the pIC50 in assay [1] is 7.74.

With `Cc1c(F)c(N)cc(C(=O)Nc2cc(-c3ccc(NC(=O)c4ccccc4)cc3)ccc2N2CCN(C)CC2)c1Cl`, the pIC50 in assay [1] was 6.37; in assay [2] it was 5.27.

With `Cc1c(F)c(N)cc(C(=O)Nc2cc(-c3ccc(NC(=O)C(C)C)cc3)ccc2N2CCN(C)CC2)c1Cl`, the pIC50 in assay [1] is 7.02; in assay [2], 5.35.

For the compound `Cc1c(F)ccc(C(=O)Nc2cc([N+](=O)[O-])ccc2N2CCN(Cc3ccccc3)CC2)c1Cl`, the pIC50 in assay [1] was < 4.70.

With `CC(=O)Nc1cc(C(=O)Nc2cc(-c3ccc([N+](=O)[O-])cc3)ccc2N2CCN(C)CC2)c(Cl)c(C)c1F`, in assay [1], the pIC50 is < 4.70.

Take `Cc1c(F)c(N)cc(C(=O)Nc2cc(-c3ccc(NC(=O)CNC(=O)OC(C)(C)C)cc3)ccc2N2CCN(C)CC2)c1Cl`: the pIC50 was 5.81 in assay [1] and 5.39 in assay [2].

As to `Cc1c(F)c(N)cc(C(=O)Nc2cc(-c3ccc(NC(=O)C4CC4)cc3)ccc2N2CCN(C)CC2)c1Cl`, the figures for the pIC50 in assay [1] and in assay [2] were 7.12 and 5.32, respectively.

As for `CN1CCN(c2ccc(-c3ccc(N)cc3)cc2NC(=O)c2cccc(N)c2)CC1`, the pIC50 in assay [1] is < 4.70.

As for `CC(=O)Nc1ccc(-c2ccc(N3CCN(C)CC3)c(NC(=O)c3cc(N)c(F)c(C)c3Cl)c2)cc1`, the pIC50 in assay [1] was 7.15; in assay [2], 4.90.

In the case of `Cc1c(F)c(N)cc(C(=O)Nc2cc(-c3ccc(NC(=O)C(C)NC(=O)OC(C)(C)C)cc3)ccc2N2CCN(C)CC2)c1Cl` (stereo not drawn), the pIC50 is 7.11 in assay [1] and 5.37 in assay [2].

For `Cc1c(F)c([N+](=O)[O-])cc(C(=O)Nc2cc(-c3ccncc3)ccc2N2CCN(C)CC2)c1Cl`, the pIC50 in assay [1] was 7.11.

With `Cc1c(F)ccc(C(=O)Nc2cc([N+](=O)[O-])ccc2NCCN)c1Cl`, in assay [1], the negative logarithm of the IC50 (pIC50) is < 4.70.

In assay [1], `CN1CCN(c2ccc(-c3ccc([N+](=O)[O-])cc3)cc2NC(=O)c2cccc([N+](=O)[O-])c2)CC1` showed a pIC50 of 6.55.

With `Cc1c(F)ccc(C(=O)Nc2cc([N+](=O)[O-])ccc2N2CCN(c3ccccn3)CC2)c1Cl`, the pIC50 in assay [1] was < 4.70.

The compound `CN1CCN(c2ccc(-c3ccncc3)cc2NC(=O)c2ccc(F)c([N+](=O)[O-])c2)CC1` had a pIC50 in assay [1] of 6.70.

Turning to `Cc1c(F)c(N)cc(C(=O)Nc2cc(-c3ccc(NC(=O)C4CCCCC4)cc3)ccc2N2CCN(C)CC2)c1Cl`, the pIC50 is 6.47 in assay [1] and 5.42 in assay [2].
